Experimental data reported in patent US10294212B2 (CURADEV PHARMA PRIVATE LTD., priority 2013, dated 2019).

Columns and labels:
[1] = molecular target: Human indoleamine 2,3-dioxygenase1 (hIDO1) (Homo sapiens (Human), UniProt P14902); assay: In-vitro IDO1 enzyme assay (conversion of L-tryptophan to KYN); format: biochemical; settings: read-out: IC50 (IDO1) Enz
Method in brief: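 Kynurenine formation quantified by HPLC absorbance at 360 nm or LC/MS/MS after TCA quench and 15 min at 65 °C. Reaction: 10 nM N-His hIDO1, 30 μM tryptophan, ascorbate/methylene blue/catalase, pH 6.5 phosphate buffer, 37 °C for 30 min. Inhibition relative to 1% DMSO vehicle, fitted to IC50.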

IDO1 in HeLa cells = IDO1 in HeLa cells (Homo sapiens (Human), UniProt P14902); assay: HeLa cell based IDO1 assay (IFNγ-induced, KYN in supernatant)
Chain of IDO1 in HeLa cells (P14902 whole entry): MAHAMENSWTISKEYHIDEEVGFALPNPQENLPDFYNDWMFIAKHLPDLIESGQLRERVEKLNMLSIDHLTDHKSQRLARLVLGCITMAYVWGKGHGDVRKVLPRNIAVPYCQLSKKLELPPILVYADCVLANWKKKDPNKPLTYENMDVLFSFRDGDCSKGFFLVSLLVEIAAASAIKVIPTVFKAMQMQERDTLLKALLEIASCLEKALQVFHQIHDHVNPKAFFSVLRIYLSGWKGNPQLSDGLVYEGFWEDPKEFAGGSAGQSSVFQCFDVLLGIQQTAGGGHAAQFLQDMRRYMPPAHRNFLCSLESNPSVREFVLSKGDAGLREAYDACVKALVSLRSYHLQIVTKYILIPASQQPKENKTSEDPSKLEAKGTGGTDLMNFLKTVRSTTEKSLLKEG
Experimental: HeLa cells were obtained from ATCC and maintained in DMEM supplemented with sodium bicarbonate (2.1 g/L), HEPES (4.1 g/L), L-glutamine (2 mM), non-essential amino acid (84 mg/L) and fetal bovine serum (10% FBS) and maintained at 95% humidity and 5% CO2 in a 37° C. incubator. Unless otherwise stated, all materials were procured from Sigma. Upon incubation with gamma-interferon (IFNγ ), HeLa cells express IDO1, which catalyzes the formation of N-formyl kynurenine from tryptophan present in growth medium. The assay was performed as follows:
Cells were plated in medium (300 μL) at a density of 0.1 million per well of a 48 well plate and hIDO1 was induced by overnight treatment with IFNγ (50 ng/mL) (Peprotech, USA). The following day, cells were washed to remove IFNγ and were incubated with specific concentrations of test compounds (typically 10 μM to 1 nM, final volume 300 μL) in Hanks Balanced Salt Solution (HBSS) containing 80 μM L-tryptophan. Following incubation, supernatant (150 μL) was transferred to a 96 well plate into which 30%TCA (304) was added and the contents further incubated at 65° C. for 15 min to fully convert N-formylkynurenine to kynurenine. The reaction mixture was then centrifuged to remove sediments and the KYN in the supernatant was estimated by UV-visible absorption spectroscopy at 360 nm using a Waters HPLC system fitted with a C-18 column. (Xiangdong Liu et al. Blood 2010, Vol-117, 3520-30; Sono described above).
Percent inhibition at each concentration of test compounds was determined by estimating the decrease in KYN with reference to the reaction control with 1% DMSO vehicle. Data were analyzed using nonlinear regression to generate IC50 values using Graph Pad Prism® 5.

[2] = molecular target: Human TDO (hTDO)-transfected CHO-K1 cells (Homo sapiens (Human), UniProt P48775); assay: CHO-K1 cell based TDO assay; settings: hTDO cellular assay
Chain of Human TDO (hTDO)-transfected CHO-K1 cells (P48775 whole entry): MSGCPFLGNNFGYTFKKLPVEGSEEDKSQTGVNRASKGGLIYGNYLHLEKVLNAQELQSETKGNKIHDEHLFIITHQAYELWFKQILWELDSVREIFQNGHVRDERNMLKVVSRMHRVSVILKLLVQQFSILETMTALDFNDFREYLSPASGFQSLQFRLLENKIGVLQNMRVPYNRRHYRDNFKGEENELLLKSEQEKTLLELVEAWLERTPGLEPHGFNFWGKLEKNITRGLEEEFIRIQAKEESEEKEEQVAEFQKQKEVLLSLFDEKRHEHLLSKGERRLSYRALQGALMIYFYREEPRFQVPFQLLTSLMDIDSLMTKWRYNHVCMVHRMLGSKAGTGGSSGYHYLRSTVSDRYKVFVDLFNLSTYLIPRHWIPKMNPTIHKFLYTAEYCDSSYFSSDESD
Method in brief: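 Kynurenine output was read by LC/MS/MS after TCA precipitation and 15 min at 65° C. Before that, CHO-K1 cells stably carrying human TDO2 were incubated 2 h with compounds (typically 31 μM to 10 nM) and 80 μM L-tryptophan in HBSS. Decrease versus DMSO vehicle gave percent inhibition, then IC50.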

Chain of Human indoleamine 2,3-dioxygenase1 (hIDO1) (P14902 whole entry): as the sequence (P14902 whole entry) above

SMILES	IC50 [1] [µM]	IC50 (IDO1 in HeLa cells) [µM]	IC50 [2] [µM]
Cc1ccc(Nc2c(N)oc3cnccc23)cc1 [Compound 40, N^3-(p-tolyl)Furo[2,3-c]pyridine-2,3-diamine]	> 1	< 0.2	0.5 to 2
Nc1oc2cnccc2c1Nc1cccc(C2CC2)c1 [Compound 42, N^3-(3-Cyclopropylphenyl)furo[2,3-c]pyridine-2,3-diamine]	< 0.2	< 0.2	> 2
CC(C)c1cccc(Nc2c(N)oc3cnccc23)c1 [Compound 43, N^3-(3-Isopropylphenyl)furo[2,3-c]pyridine-2,3-diamine]	0.2 to 1	< 0.2	> 2
Nc1oc2cnccc2c1Nc1ccc(F)c(Cl)c1F [Compound 44, N^3-(3-Chloro-2,4-difluorophenyl)furo[2,3-c]pyridine-2,3-diamine]	0.2 to 1	< 0.2	0.5 to 2
Nc1oc2cnccc2c1Nc1cccc(F)c1 [Compound 46, N^3-(3-Fluorophenyl)furo[2,3-c]pyridine-2,3-diamine]	0.2 to 1	< 0.2	0.5 to 2
Nc1oc2cnccc2c1Nc1cc(Cl)c(F)c(Cl)c1 [Compound 47, N^3-(3,5-Dichloro-4-fluorophenyl)furo[2,3-c]pyridine-2,3-diamine]	> 1	0.2 to 1	0.5 to 2
Nc1oc2cnccc2c1Nc1cc(Cl)c(F)cc1F [Compound 51, N^3-(5-Chloro-2,4-difluorophenyl)furo[2,3-c]pyridine-2,3-diamine]	> 1	< 0.2	> 2
Nc1oc2cnccc2c1Nc1cc(Cl)ccc1Cl [Compound 55, N^3-(2,5-Dichlorophenyl)furo[2,3-c]pyridine-2,3-diamine]	> 1	< 0.2	> 2
Nc1oc2cnccc2c1Nc1ccc(F)c(Br)c1 [Compound 58, N^3-(3-Bromo-4-fluorophenyl)furo[2,3-c]pyridine-2,3-diamine]	< 0.2	< 0.2	< 0.5
Nc1oc2cnccc2c1Nc1ccc(F)c(C(F)(F)F)c1 [Compound 60, N^3-(4-Fluoro-3-(trifluoromethyl)phenyl)furo[2,3-c]pyridine-2,3-diamine]	< 0.2	< 0.2	0.5 to 2
Nc1oc2cnccc2c1Nc1ccc(F)c(OC(F)(F)F)c1 [Compound 62, N^3-(4-Fluoro-3-(trifluoromethoxy)phenyl)furo[2,3-c]pyridine-2,3-diamine]	0.2 to 1	< 0.2	> 2
COc1cc2c(Nc3ccc(F)c(Cl)c3)c(N)oc2cn1 [Compound 64, N^3-(3-Chloro-4-fluoro-phenyl)-5-methoxy-furo[2,3-c]pyridine-2,3-diamine]	< 0.2	< 0.2	0.5 to 2
Nc1oc2cnccc2c1Nc1cccc(C(F)F)c1 [Compound 65, N^3-(3-(Difluoromethyl)phenyl)furo[2,3-c]pyridine-2,3-diamine]	< 0.2	< 0.2	0.5 to 2
Cc1nccc2c(Nc3ccc(F)c(Cl)c3)c(N)oc12 [Compound 66, N^3-(3-Chloro-4-fluoro-phenyl)-7-methyl-furo[2,3-c]pyridine-2,3-diamine]	< 0.2	< 0.2	< 0.5
COc1cncc2oc(N)c(Nc3ccc(F)c(Cl)c3)c12 [Compound 67, N^3-(3-Chloro-4-fluoro-phenyl)-4-methoxy-furo[2,3-c]pyridine-2,3-diamine]	> 1	< 0.2	0.5 to 2
C#Cc1cccc(Nc2c(N)oc3cnccc23)c1 [Compound 68, N^3-(3-Ethynylphenyl)furo[2,3-c]pyridine-2,3-diamine]	0.2 to 1	< 0.2	0.5 to 2
CC(F)(F)c1cc(Nc2c(N)oc3cnccc23)ccc1F [Compound 69, N^3-(3-(1,1-Difluoroethyl)-4-fluorophenyl)furo[2,3-c]pyridine-2,3-diamine]	0.2 to 1	< 0.2	> 2
Cc1cc(Nc2c(N)oc3cnccc23)ccc1Cl [Compound 70, N^3-(4-Chloro-3-methylphenyl)furo[2,3-c]pyridine-2,3-diamine]	0.2 to 1	< 0.2	0.5 to 2
Nc1oc2cnccc2c1Nc1ccc2c(c1)CCCC2 [Compound 71, N^3-(5,6,7,8-Tetrahydronaphthalen-2-yl)furo[2,3-c]pyridine-2,3-diamine]	> 1	< 0.2	> 2
Cc1ncc(C)c2c(Nc3ccc(F)c(Cl)c3)c(N)oc12 [Compound 72, N^3-(3-chloro-4-fluorophenyl)-4,7-dimethylfuro[2,3-c]pyridine-2,3-diamine]	0.2 to 1	0.2 to 1	0.5 to 2

More lines, now with the values ahead:

IC50 [1] [µM]	IC50 (IDO1 in HeLa cells) [µM]	IC50 [2] [µM]	SMILES
< 0.2	< 0.2	< 0.5	CCc1nccc2c(Nc3ccc(F)c(Cl)c3)c(N)oc12 [Compound 73, N^3-(3-Chloro-4-fluoro-phenyl)-7-ethyl-furo[2,3-c]pyridine-2,3-diamine]
< 0.2	< 0.2	> 2	CCc1nccc2c(Nc3ccc(F)c(C(F)(F)F)c3)c(N)oc12 [Compound 74, 7-Ethyl-N^3-(4-fluoro-3-(trifluoromethyl)phenyl)furo[2,3-c]pyridine-2,3-diamine]
< 0.2	< 0.2	0.5 to 2	CCc1nccc2c(Nc3cccc(C(F)(F)F)c3)c(N)oc12 [Compound 76, 7-Ethyl-N^3-(3-(trifluoromethyl)phenyl)furo[2,3-c]pyridine-2,3-diamine]
< 0.2	< 0.2	> 2	CCCc1nccc2c(Nc3ccc(F)c(Cl)c3)c(N)oc12 [Compound 77, N^3-(3-Chloro-4-fluoro-phenyl)-7-propyl-furo[2,3-c]pyridine-2,3-diamine]
< 0.2	< 0.2	> 2	CCCc1nccc2c(Nc3cccc(C(F)(F)F)c3)c(N)oc12 [Compound 78, 7-Propyl-N^3-(3-(trifluoromethyl)phenyl)furo[2,3-c]pyridine-2,3-diamine]
< 0.2	< 0.2	0.5 to 2	CCCc1nccc2c(Nc3ccc(F)c(C(F)(F)F)c3)c(N)oc12 [Compound 79, N^3-(4-Fluoro-3-(trifluoromethyl)phenyl)-7-propylfuro[2,3-c]pyridine-2,3-diamine]
< 0.2	< 0.2	> 2	Cc1nccc2c(Nc3cccc(C(F)(F)F)c3)c(N)oc12 [Compound 80, 7-Methyl-N^3-(3-(trifluoromethyl)phenyl)furo[2,3-c]pyridine-2,3-diamine]
< 0.2	< 0.2	< 0.5	Nc1oc2c(-c3ccccc3)nccc2c1Nc1ccc(F)c(Cl)c1 [Compound 81, N^3-(3-Chloro-4-fluorophenyl)-7-phenylfuro[2,3-c]pyridine-2,3-diamine]
< 0.2	< 0.2	> 2	Nc1oc2c(-c3ccccc3)nccc2c1Nc1cccc(C(F)(F)F)c1 [Compound 82, 7-Phenyl-N^3-(3-(trifluoromethyl)phenyl)furo[2,3-c]pyridine-2,3-diamine]
